Measurements taken from ChEMBL document CHEMBL1126376, “Synthesis and activities of 9-pyrrolo-9-deoxoerythromycin a analogs” (1992).
Values after ≈ are worked out from the molar mass of the structure shown.

Legend:
Experiment in all cases: microbe, parasite or virus in culture
Format in all cases: functional
Enterococcus faecalis = tested on: Enterococcus faecalis
Description: In vitro minimum inhibitory concentration against Enterococcus faecalis (MB 5407) was determined

Haemophilus influenzae = tested on: Haemophilus influenzae
Description: In vitro minimum inhibitory concentration against Haemophilus influenzae (MB 5363) was determined

[1] = tested on: Staphylococcus epidermidis
Description: In vitro minimum inhibitory concentration against Staphylococcus epidermidis (MB 5414) was determined

Staphylococcus aureus = tested on: Staphylococcus aureus
Description: In vitro minimum inhibitory concentration against Staphylococcus aureus (MB 2865) was determined

Streptococcus pneumoniae = tested on: Streptococcus pneumoniae
Description: In vitro minimum inhibitory concentration against Streptococcus pneumoniae (CL 2883) was determined

Streptococcus pyogenes = tested on: Streptococcus pyogenes
Description: In vitro minimum inhibitory concentration against Streptococcus pyogenes (MB 2874) was determined

Row | Structure (SMILES) | MIC (Enterococcus faecalis) [µg/mL] | MIC (Haemophilus influenzae) [µg/mL] | MIC [1] [µg/mL] | MIC (Staphylococcus aureus) [µg/mL] | MIC (Streptococcus pneumoniae) [µg/mL] | MIC (Streptococcus pyogenes) [µg/mL]
1 | CC[C@H]1OC(=O)[C@H](C)[C@@H](O[C@H]2C[C@@](C)(OC)[C@@H](O)[C@H](C)O2)[C@H](C)[C@@H](O[C@@H]2O[C@H](C)C[C@H](N(C)C)[C@H]2O)[C@](C)(O)C[C@@H](C)[C@@H](n2ccc(O)c2C(=O)OC(C)(C)C)[C@H](C)[C@@H](O)[C@]1(C)O | 64 (≈ 71 µM) | > 128 | 64 (≈ 71 µM) | 64 (≈ 71 µM) | 16 (≈ 17.8 µM) | 8 (≈ 8.88 µM)
2 | CC[C@H]1OC(=O)[C@H](C)[C@@H](O[C@H]2C[C@@](C)(OC)[C@@H](O)[C@H](C)O2)[C@H](C)[C@@H](O[C@@H]2O[C@H](C)C[C@H](N(C)C)[C@H]2O)[C@](C)(O)C[C@@H](C)[C@H](n2ccc(C=O)c2)[C@H](C)[C@@H](O)[C@]1(C)O | 64 (≈ 78.7 µM) | 64 (≈ 78.7 µM) | 32 (≈ 39.4 µM) | 32 (≈ 39.4 µM) | 64 (≈ 78.7 µM) | 32 (≈ 39.4 µM)
3 | CC[C@H]1OC(=O)[C@H](C)[C@@H](O[C@H]2C[C@@](C)(OC)[C@@H](O)[C@H](C)O2)[C@H](C)[C@@H](O[C@@H]2O[C@H](C)C[C@H](N(C)C)[C@H]2O)[C@](C)(O)C[C@@H](C)[C@@H](n2cccc2)[C@H](C)[C@@H](O)[C@]1(C)O | 32 (≈ 40.8 µM) | > 128 | 64 (≈ 81.5 µM) | 128 (≈ 163 µM) | 2 (≈ 2.55 µM) | –
4 | CC[C@H]1OC(=O)[C@H](C)[C@@H](O[C@H]2C[C@@](C)(OC)[C@@H](O)[C@H](C)O2)[C@H](C)[C@@H](O[C@@H]2O[C@H](C)C[C@H](N(C)C)[C@H]2O)[C@](C)(O)C[C@@H](C)[C@H](n2cccc2)[C@H](C)[C@@H](O)[C@]1(C)O | 64 (≈ 81.5 µM) | 128 (≈ 163 µM) | 32 (≈ 40.8 µM) | 64 (≈ 81.5 µM) | 4 (≈ 5.1 µM) | 4 (≈ 5.1 µM)
5 | CC[C@H]1OC(=O)[C@H](C)[C@@H](O[C@H]2C[C@@](C)(OC)[C@@H](O)[C@H](C)O2)[C@H](C)[C@@H](O[C@@H]2O[C@H](C)C[C@H](N(C)C)[C@H]2O)[C@](C)(O)C[C@@H](C)[C@H](n2ccc(O)c2C(=O)OC(C)(C)C)[C@H](C)[C@@H](O)[C@]1(C)O | 16 (≈ 17.8 µM) | 32 (≈ 35.5 µM) | 4 (≈ 4.44 µM) | 8 (≈ 8.88 µM) | 0.5 (≈ 0.555 µM) | 0.25 (≈ 0.277 µM)
6 | CC[C@H]1OC(=O)[C@H](C)[C@@H](O[C@H]2C[C@@](C)(OC)[C@@H](O)[C@H](C)O2)[C@H](C)[C@@H](O[C@@H]2O[C@H](C)C[C@H](N(C)C)[C@H]2O)[C@](C)(O)C[C@@H](C)[C@@H](n2ccc(C=O)c2)[C@H](C)[C@@H](O)[C@]1(C)O | 16 (≈ 19.7 µM) | 128 (≈ 157 µM) | 8 (≈ 9.84 µM) | 32 (≈ 39.4 µM) | 1 (≈ 1.23 µM) | –
